# From PubChem BioAssay AID179 (DTP/NCI, 2004)
# Active and inactive are the calls of the source.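 The calls were made as follows: active = compounds giving half or more protection of infected cells from virus-caused growth loss, again on retest; inactive = the rest.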
# Tested on: CEM cells HIV-1 protection, formazan growth assay
# Assay: NCI AIDS Antiviral Assay
# Details: for IC50: measured here: growth of uninfected CEM cells
# Procedure, shortened: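 Five concentrations of each compound were applied to infected and uninfected human CEM cells. Protection from HIV-1 was judged from growth measured with a soluble formazan assay.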
Compound,EC50 [µM],IC50 [µM],outcome
O=S1(=O)COc2ccccc2-c2ncncc21,47.9,> 200,
O=C1Cc2c(-c3ccc(Cl)cc3)cc(-c3ccccc3)nc2-c2ccccc2N1,> 100,28.8,
CN1C(=O)C(O)C[C@@H]1c1ccccc1 (stereo partly drawn),,,inactive
Cc1ccc(S(=O)(=O)c2[nH]cc(-c3c[nH]c(S(=O)(=O)c4ccc(C)cc4)c3C3CCCCC3)c2C2CCCCC2)cc1,,,inactive
COCC[N+](CCNC(=O)c1cccc2c(N)c3cccc(C)c3nc12)(CCOC)Cc1ccc([N+](=O)[O-])cc1,> 200,13.2,
CC(=O)OC1COC(OC2CC3(C)C4CC=C5C(C=C(O)CC5(C)C)[C@]4(C)CC[C@]3(C)C2C(C)(O)C(=O)/C=C/C(C)(C)O)C(OC(C)=O)C1O (stereo partly drawn),,,inactive
C[C@]12CC[C@H](O)CC1=CC[C@@H]1C2CC[C@]2(C)Nc3[nH]ncc3CC12 (stereo partly drawn),,,inactive
CCCC/C=C/Cc1[nH]c2ccccc2c(=O)c1C,> 28.2,,
CN(C(=O)CCC(=O)O)c1ccccc1C(=O)O,> 200,> 200,
COc1ccn(CC(C)=O)c(=O)n1,> 200,> 200,
Cc1nc2c(O)ccc(O)c2nc1C,> 200,17.8,
COC(=O)C1C(OC(=O)C(Cl)(c2ccccc2)c2ccccc2)CC2CCC1N2C (stereo not drawn),> 200,> 200,
CCOP(=O)(/N=C1/C2CCC(C2)C1C)OCC (stereo not drawn),> 234,> 234,
CN(C)N1C(=O)S/C(=C\c2ccc([N+](=O)[O-])cc2)C1=O,> 200,> 200,
CCOC(=O)[C@@H]1[C@@H]2NC(=O)N[C@@]1(C)Oc1ccccc12,> 200,> 200,
CC(C)c1ccc(Cc2ccc(C(C)C)c(NC(=O)C(=O)Cc3cnc4ccccc4n3)c2C(C)C)c(C(C)C)c1NC(=O)C(=O)Cc1cnc2ccccc2n1,> 13.2,> 13.2,
C(=NCCSSCCN=Cc1ccccc1)c1ccccc1,> 200,38.9,
CC1(C)[C@@H]2C[C@H]1C(Cc1ccc(C[C@H]3c4cc(-c5ccccn5)ncc4[C@H]4C[C@@H]3C4(C)C)cc1)c1cc(-c3ccccn3)ncc12 (stereo partly drawn),> 20,0.813,

Compound,EC50 [µM],IC50 [µM],outcome
N#CC(NCc1cccc(CNC(C#N)c2ccccc2)c1)c1ccccc1 (stereo not drawn),> 200,89.1,
Nc1c(Br)cc2c(c1Br)Cc1cc(Br)ccc1-2,> 200,> 200,
CC(C)[P+](c1ccccc1)(c1ccccc1)c1ccccc1,> 200,5.5,
CCOC(=O)N1[C@@H]2CCC[C@@H]2C(=O)[C@@H]2CCC[C@@H]21,> 200,> 200,
O=C1N(O)C2(C=CCCC2)/C(=N/O)C12CCCCC2 (stereo not drawn),> 70.8,> 70.8,
N#CC(C#N)=c1[nH]c2cccc3c2-c2c(cccc2c3=C(C#N)C#N)[nH]1,,,inactive
OCC1OC(n2cnc3c2NC=NCC3O)C(Cl)C1O (stereo not drawn),> 295,> 295,
CCCCSC1=NCCCS1,> 275,> 275,
CC(C)(C)O/N=C/c1cc(NC(=S)c2ccccc2)ccc1Cl,0.135,10.7,
COc1cccc(NC(=O)C(C#N)=C(SC)SC)c1,> 200,7.94,
O=C(O)c1sccc1-c1cccc2ccccc12,> 200,83.2,
CC(Nc1ccc(Cl)cc1)c1ccncc1 (stereo not drawn),> 200,72.4,
COC[C@H]1OC(=O)c2coc3c2[C@@]1(C)C1=C(C3=O)[C@@H]2CCC(=O)[C@@]2(C)C[C@H]1OC(C)=O,,,inactive
O=c1[nH]c2ncccc2c(=O)n1OS(=O)(=O)c1ccccc1,> 200,135,
NC(=O)CCCCNC(=O)c1ccccc1SC(=O)CCCC[n+]1ccccc1,1.26,10.7,
COc1cccc(/C=C2\CCCCCC2=O)c1,> 200,40.7,
O=S(=O)(NC(c1ccccc1)(c1cc2ccccc2[nH]1)c1cc2ccccc2n1S(=O)(=O)c1ccccc1)c1ccccc1 (stereo not drawn),> 200,> 200,
